Results from DBAASP.
In brackets after ≈: the same amount, converted by molar mass. Several values for one entry are separate records, joined by “and”; a condition that tells them apart may be missing. Equal values may be shown once. Blank lines part the entries; values can stand above or below the compound they belong to.

Key:
Assay in all cases: ≥ marks a high value that may be exact or a test limit, other limits are often not marked, values filed in µg/mL are converted to µM
[1] = test system: Escherichia coli NCTC 12923
[2] = test system: Enterococcus faecalis ATCC 19433
[3] = test system: Escherichia coli ATCC 25922
[4] = test system: Acinetobacter baumannii ATCC 17978
[5] = test system: Pseudomonas aeruginosa PAO1
[6] = test system: Pseudomonas aeruginosa ATCC BAA-2114
[7] = test system: Salmonella enterica subsp. enterica serovar Choleraesuis ATCC 10708
[8] = test system: Pseudomonas aeruginosa ATCC 9027
[9] = test system: Klebsiella pneumoniae NCTC 13368
[10] = test system: Staphylococcus aureus USA 300
[11] = test system: Pseudomonas aeruginosa ATCC 27853
[12] = test system: Staphylococcus aureus ATCC 43300
[13] = test system: Staphylococcus aureus ATCC 29213
[14] = test system: Staphylococcus epidermidis ATCC 12228
[15] = test system: Staphylococcus aureus ATCC 33591
[16] = test system: Klebsiella pneumoniae ATCC 13883
[17] = test system: Staphylococcus aureus ATCC 9144
[18] = test system: Bacillus anthracis Sterne 34F2
[19] = test system: Bacillus subtilis var. niger ATCC 9372
Escherichia coli K91BK = test system: Escherichia coli K91BK
Alternaria alternata = test system: Alternaria alternata
Cladosporium herbarum = test system: Cladosporium herbarum
[20] = test system: Xanthomonas vesicatoria DSM 50861
[21] = test system: Clavibacter michiganensis subsp. michiganensis DSM 46294
[22] = test system: Pseudomonas syringae pv. syringae DSM 10604
[23] = test system: Pseudomonas syringae pv. tomato DC3000
Botrytis cinerea = test system: Botrytis cinerea
[24] = test system: Pectobacterium carotovorum subsp. carotovorum DSM 30168
[25] = test system: Pseudomonas corrugata DSM 7228
[26] = test system: Staphylococcus aureus 90857
[27] = test system: Staphylococcus epidermidis ATCC 29887
[28] = test system: Klebsiella pneumoniae LMG 20218
Fusarium oxysporum LD21 = test system: Fusarium oxysporum LD21
[29] = test system: Streptococcus agalactiae ATCC 13813
[30] = test system: Streptococcus pneumoniae ATCC 700677
[31] = test system: Pseudomonas aeruginosa LMG 6395
[32] = test system: Enterococcus faecium ATCC 35667
[33] = test system: Listeria monocytogenes ATCC 19115
[34] = test system: Acinetobacter baumannii LMG 01041
[35] = test system: Salmonella enterica subsp. enterica serovar Enteritidis ATCC 13076
[36] = test system: Pseudomonas aeruginosa ATCC 10145
[37] = test system: Candida albicans ATCC 10231
[38] = test system: Klebsiella aerogenes LMG 02094
[39] = test system: Enterococcus faecalis JH-2-2
[40] = test system: Escherichia coli LMG 15862
[41] = test system: Candida albicans ATCC 64550
[42] = test system: Shewanella putrefaciens ATCC 49138
[43] = test system: Streptococcus pneumoniae ATCC 33400
[44] = test system: Campylobacter jejuni ATCC 33291
[45] = test system: Escherichia coli CGSC 5167
[46] = test system: Staphylococcus aureus ATCC 25923
[47] = test system: Klebsiella pneumoniae ATCC 700603
[48] = test system: Enterococcus faecium ATCC 51559

MIC [1]: 1.85 µM (≈ 4 µg/mL)
MIC [2]: 5 µM (≈ 10.8 µg/mL)
MIC [3]: 7.5 µM (≈ 16.2 µg/mL)
MIC [4]: 1.85 µM (≈ 4 µg/mL)
MIC [5]: 14.8 µM (≈ 32 µg/mL)
MIC [6]: ≥ 35 µM
MIC [8]: 5 µM (≈ 10.8 µg/mL)
MIC [9]: 7.4 µM (≈ 16 µg/mL)
MIC [10]: 3.7 µM (≈ 8 µg/mL)
MIC [11]: 35 µM (≈ 75.7 µg/mL)
MIC [12]: 5 µM (≈ 10.8 µg/mL)
MIC [13]: 5 µM and 3 µM
MIC [14]: 5 µM (≈ 10.8 µg/mL)
MIC [15]: 5 µM and 3 µM
MIC [16]: 5 µM (≈ 10.8 µg/mL)
MIC [17]: 1.85 µM (≈ 4 µg/mL)
Compound: CC[C@H](C)[C@H](NC(=O)[C@H](C)NC(=O)[C@H](CCCCN)NC(=O)[C@@H]1CCCN1C(=O)[C@@H](NC(=O)[C@H](CC(C)C)NC(=O)[C@H](CCCCN)NC(=O)[C@H](Cc1ccccc1)NC(=O)[C@H](CC(C)C)NC(=O)[C@@H](N)Cc1ccccc1)[C@@H](C)CC)C(=O)N[C@@H](CCCCN)C(=O)N[C@@H](CCCCN)C(=O)N[C@@H](CC(C)C)C(=O)N[C@H](C(=O)N[C@@H](CO)C(=O)N[C@@H](CCCCN)C(=O)N[C@@H](Cc1ccccc1)C(=O)N[C@@H](CCCCN)C(=O)O)[C@@H](C)CC [FLFKLIPKAIKKLISKFK]
MIC [7]: 7.5 µM (≈ 16.2 µg/mL)

Compound: CC[C@H](C)[C@H](NC(C)=O)C(=O)N[C@@H](CC(C)C)C(=O)N[C@@H](CCCN=C(N)N)C(=O)N[C@@H](Cc1c[nH]c2ccccc12)C(=O)N1CCC[C@H]1C(=O)N[C@@H](Cc1c[nH]c2ccccc12)C(=O)N[C@@H](Cc1c[nH]c2ccccc12)C(=O)N1CCC[C@H]1C(=O)N[C@@H](Cc1c[nH]c2ccccc12)C(=O)N[C@@H](CCCN=C(N)N)C(=O)N[C@@H](CCCN=C(N)N)C(=O)N[C@@H](CCCCN)C(N)=O [ILRWPWWPWRRK]
MIC [18]: 25 µM (≈ 45.5 µg/mL)
MIC [19]: 3.13 µM (≈ 5.7 µg/mL)
MIC (Escherichia coli K91BK): ≥ 100 µM

MIC (Alternaria alternata): ≥ 64.3 µM
MIC (Cladosporium herbarum): 12.9 µM (≈ 20 µg/mL)
MIC [20]: 3.21 µM (≈ 5 µg/mL)
MIC [21]: 3.21 µM (≈ 5 µg/mL)
MIC [22]: 6.43 µM (≈ 9.99 µg/mL)
MIC [23]: 3.21 µM (≈ 5 µg/mL)
MIC (Botrytis cinerea): ≥ 64.3 µM
MIC [24]: 25.7 µM (≈ 40 µg/mL)
MIC [25]: 6.43 µM (≈ 9.99 µg/mL)
Compound: CC[C@H](C)[C@H](NC(=O)[C@H](Cc1ccccc1)NC(=O)[C@H](CCCN=C(N)N)NC(=O)[C@H](CCCCN)NC(=O)[C@H](CC(C)C)NC(=O)[C@H](Cc1ccccc1)NC(=O)[C@H](CCCCN)NC(=O)[C@@H](NC(=O)[C@H](CC(C)C)NC(=O)[C@@H](N)CC(C)C)[C@@H](C)CC)C(=O)N[C@@H](CCCCN)C(=O)N[C@@H](Cc1cnc[nH]1)C(N)=O [LLIKFLKRFIKH]

MIC [20]: 1.62 µM (≈ 2.5 µg/mL)
MIC [21]: 0.646 µM (≈ 0.999 µg/mL)
MIC [22]: 1.62 µM (≈ 2.5 µg/mL)
MIC [26]: 1.5 µM (≈ 2.32 µg/mL)
MIC [23]: 0.646 µM (≈ 0.999 µg/mL)
MIC [24]: 1.62 µM (≈ 2.5 µg/mL)
MIC [25]: 1.62 µM (≈ 2.5 µg/mL)
Compound: CC[C@H](C)[C@H](NC(=O)[C@H](CCCCN)NC(=O)[C@H](CCCCN)NC(=O)[C@H](CC(C)C)NC(=O)[C@H](Cc1ccccc1)NC(=O)[C@H](CCCN=C(N)N)NC(=O)[C@@H](N)CC(C)C)C(=O)N[C@@H](CC(C)C)C(=O)N[C@@H](CCCCN)C(=O)N[C@@H](CCCCN)C(=O)N[C@@H](CC(C)C)C(=O)N[C@@H](Cc1ccccc1)C(N)=O [LRFLKKILKKLF]

MIC [27]: 1.89 µM (≈ 3 µg/mL)
MIC [3]: 0.5 µM (≈ 0.792 µg/mL)
MIC [28]: 4 µM (≈ 6.34 µg/mL)
MIC [29]: 1.89 µM (≈ 3 µg/mL)
MIC [30]: 0.4 µM (≈ 0.634 µg/mL)
MIC [31]: 3 µM (≈ 4.75 µg/mL)
MIC [32]: 1 µM (≈ 1.58 µg/mL)
MIC [33]: 3.79 µM (≈ 6 µg/mL)
MIC [34]: 2 µM (≈ 3.17 µg/mL)
MIC [11]: 1.5 µM (≈ 2.38 µg/mL)
MIC [35]: 3.79 µM (≈ 6 µg/mL)
MIC [36]: 2.5 µM (≈ 3.96 µg/mL)
MIC [37]: 7.57 µM (≈ 12 µg/mL)
MIC [13]: 3.79 µM (≈ 6 µg/mL)
MIC [38]: 8 µM (≈ 12.7 µg/mL)
MIC [39]: 15.8 µM (≈ 25 µg/mL)
MIC [40]: 2 µM (≈ 3.17 µg/mL)
MIC [15]: 0.3 µM (≈ 0.475 µg/mL)
MIC [16]: 0.1 µM (≈ 0.158 µg/mL)
MIC [41]: ≥ 100 µM
MIC [42]: 3.79 µM (≈ 6 µg/mL)
MIC [43]: 0.8 µM (≈ 1.27 µg/mL)
MIC [44]: 3.79 µM (≈ 6 µg/mL)
MIC [45]: 0.2 µM (≈ 0.317 µg/mL)
MIC [46]: 0.8 µM (≈ 1.27 µg/mL)
MIC [47]: 0.3 µM (≈ 0.475 µg/mL)
MIC [48]: 1 µM (≈ 1.58 µg/mL)
Compound: CC[C@H](C)[C@H](NC(=O)[C@H](CCCN=C(N)N)NC(=O)[C@H](CCCN=C(N)N)NC(=O)[C@H](Cc1ccccc1)NC(=O)[C@H](CC(C)C)NC(=O)[C@H](CCCN=C(N)N)NC(=O)[C@@H](N)CCCN=C(N)N)C(=O)N[C@@H](CC(C)C)C(=O)N[C@@H](CCCN=C(N)N)C(=O)N[C@@H](Cc1c[nH]c2ccccc12)C(=O)N[C@@H](CC(C)C)C(N)=O [RRLFRRILRWL]
MIC (Fusarium oxysporum LD21): 7.57 µM (≈ 12 µg/mL)
